This passage reports GI50 and TGI results from PubChem BioAssay (NCI).

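Values below derive from 48-hour exposures of cells grown in 96-well plates, with endpoints linearly interpolated between the two concentrations bracketing the appropriate inhibition level. GI50 marks 50% less growth. The concentration for full growth arrest is given as TGI.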 Where only a bound is given, the exact number is not on record here.

What all share (assay): NCI anticancer screen, dose series, 48 h
Experiment [1] deals with SK-MEL-5 melanoma.
For experiment [2], the system named is RXF 393 renal.
In experiment [3] the test system is UACC-62 melanoma.
Experiment [4] has as its system EKVX NSCLC.
Experiment [5] relates to UO-31 renal.
For experiment [6], the system named is MDA-MB-435.
Experiment [7] has as its system M14 melanoma.
The subject of experiment [8] is MOLT-4 leukemia.
Experiment [9] relates to TK-10 renal.
Experiment [10] deals with COLO 205 colon.

With `CC(C)(C)c1ccc(Oc2ccc(N)cn2)cc1`, the GI50 is 25.8 µM in experiment [1]; 49.6 µM in experiment [2]; 61.3 µM in [3]; 28.2 µM in experiment [4]; 1.75 µM in experiment [5]; 72.9 µM in [6]. Besides, the GI50 in [7] was 56.4 µM; in experiment [8] it was 3.96 µM; in experiment [9] it was above 100 µM; in [10], 50.7 µM. Also, the TGI in [1] was 79.2 µM; in experiment [2], above 100 µM; in experiment [3], above 100 µM; in experiment [4], above 100 µM; in [5] it was above 100 µM; in experiment [6], above 100 µM. Also, the TGI in [7], in [8], in experiment [9] and in experiment [10] was above 100 µM each time.

With `CCOC(=O)c1cc2c(cc1Cl)SC(=Nc1ccccc1)N(S(=O)(=O)c1ccc(Cl)cc1)S2(=O)=O`, the GI50 in [1] is 9.5 µM; in experiment [2], 11.3 µM; in experiment [3], 10.2 µM; in [4] it was 16.6 µM; in experiment [5] it was 15.9 µM; in experiment [6], 12.9 µM. For the same compound, the GI50 was 11.2 µM in [7], 11.7 µM in experiment [8], 16.8 µM in experiment [9] and 9.06 µM in [10]. Further, the TGI was 21.6 µM in experiment [1]; 36.1 µM in [2]; 23.7 µM in experiment [3]; 31.8 µM in experiment [4]; 33.3 µM in experiment [5]; 28.4 µM in [6]. Besides, the TGI in experiment [7] is 26 µM; in experiment [8], 37.3 µM; in experiment [9], 32.3 µM; in experiment [10], above 100 µM.
